Tests used:
Format in all cases: ADME, organism-based
[1] = AUC in men plasma at 25 to 320 mg by LC/MS/MS analysis; settings: male, human
[2] = AUC in women plasma at 25 to 320 mg by LC/MS/MS analysis; settings: female, human
[3] = Cmax in men plasma at 25 to 320 mg by LC/MS/MS analysis; settings: male, human
[4] = Cmax in women plasma at 25 to 320 mg by LC/MS/MS analysis; settings: female, human
[5] = Half life in men plasma at 25 to 320 mg by LC/MS/MS analysis; settings: male, human
[6] = Half life in women plasma at 25 to 320 mg by LC/MS/MS analysis; settings: female, human
[7] = Tmax in men plasma at 25 to 320 mg by LC/MS/MS analysis; settings: male, human
[8] = Tmax in women plasma at 25 to 320 mg by LC/MS/MS analysis; settings: female, human
[9] = Tmax in human plasma expressing CYP2C8*2 allele carrier polymorphism at 25 to 320 mg by LC/MS/MS analysis
[10] = AUC in human plasma expressing CYP2C8*3 allele carrier polymorphism at 25 to 320 mg by LC/MS/MS analysis
[11] = species: Homo sapiens; assay: Cmax in human plasma expressing CYP2C8*3 allele carrier polymorphism at 25 to 320 mg by LC/MS/MS analysis; settings: in vivo
[12] = Half life in human plasma expressing CYP2C8*3 allele carrier polymorphism at 25 to 320 mg by LC/MS/MS analysis
[13] = Tmax in human plasma expressing CYP2C8*3 allele carrier polymorphism at 25 to 320 mg by LC/MS/MS analysis
[14] = AUC in human plasma expressing CYP2C8*4 allele carrier polymorphism at 25 to 320 mg by LC/MS/MS analysis
[15] = Cmax in human plasma expressing CYP2C8*4 allele carrier polymorphism at 25 to 320 mg by LC/MS/MS analysis
[16] = Half life in human plasma expressing CYP2C8*4 allele carrier polymorphism at 25 to 320 mg by LC/MS/MS analysis
[17] = Tmax in human plasma expressing CYP2C8*4 allele carrier polymorphism at 25 to 320 mg by LC/MS/MS analysis
[18] = species: Homo sapiens; assay: AUC in human plasma expressing CYP2C9*3 allele carrier polymorphism at 25 to 320 mg by LC/MS/MS analysis; settings: in vivo
[19] = Cmax in human plasma expressing CYP2C9*3 allele carrier polymorphism at 25 to 320 mg by LC/MS/MS analysis
[20] = Half life in human plasma expressing CYP2C9*3 allele carrier polymorphism at 25 to 320 mg by LC/MS/MS analysis
[21] = Tmax in human plasma expressing CYP2C9*3 allele carrier polymorphism at 25 to 320 mg by LC/MS/MS analysis
[22] = AUC in human plasma expressing CYP2C9*1/*1 polymorphism at 25 to 320 mg by LC/MS/MS analysis
[23] = Cmax in human plasma expressing CYP2C9*1/*1 polymorphism at 25 to 320 mg by LC/MS/MS analysis
[24] = Half life in human plasma expressing CYP2C9*1/*1 polymorphism at 25 to 320 mg by LC/MS/MS analysis
[25] = Tmax in human plasma expressing CYP2C9*1/*1 polymorphism at 25 to 320 mg by LC/MS/MS analysis
[26] = AUC in human plasma expressing CYP2C9*2 allele carrier polymorphism at 25 to 320 mg by LC/MS/MS analysis
[27] = Cmax in human plasma expressing CYP2C9*2 allele carrier polymorphism at 25 to 320 mg by LC/MS/MS analysis
[28] = Tmax in human plasma expressing CYP2C9*2 allele carrier polymorphism at 25 to 320 mg by LC/MS/MS analysis
[29] = AUC in human plasma expressing CYP2C8*1/*1 polymorphism at 25 to 320 mg by LC/MS/MS analysis
[30] = Cmax in human plasma expressing CYP2C8*1/*1 polymorphism at 25 to 320 mg by LC/MS/MS analysis
[31] = Half life in human plasma expressing CYP2C8*1/*1 polymorphism at 25 to 320 mg by LC/MS/MS analysis
[32] = Tmax in human plasma expressing CYP2C8*1/*1 polymorphism at 25 to 320 mg by LC/MS/MS analysis
[33] = AUC in human plasma expressing CYP2C8*2 allele carrier polymorphism at 25 to 320 mg by LC/MS/MS analysis
[34] = Cmax in human plasma expressing CYP2C8*2 allele carrier polymorphism at 25 to 320 mg by LC/MS/MS analysis

Compound: CCCCC(=O)N(Cc1ccc(-c2ccccc2-c2nnn[nH]2)cc1)[C@H](C(=O)O)C(C)C
- AUC [1]: 38800 ng·h/mL
- AUC [2]: 38600 ng·h/mL
- Cmax [3]: 4590 ng/mL
- Cmax [4]: 4910 ng/mL
- half-life [5]: 9.1 h
- half-life [6]: 9.4 h
- Tmax [7]: 3.2 h
- Tmax [8]: 3.2 h
- Tmax [9]: 3.1 h
- AUC [10]: 37400 ng·h/mL
- Cmax [11]: 4711 ng/mL
- half-life [12]: 9.4 h
- Tmax [13]: 3 h
- AUC [14]: 39600 ng·h/mL
- Cmax [15]: 4860 ng/mL
- half-life [16]: 7.6 h
- Tmax [17]: 2.8 h
- AUC [18]: 31449 ng·h/mL
- Cmax [19]: 4010 ng/mL
- half-life [20]: 9.9 h
- Tmax [21]: 3 h
- AUC [22]: 40600 ng·h/mL
- Cmax [23]: 4880 ng/mL
- half-life [24]: 9.1 h
- Tmax [25]: 3.3 h
- AUC [26]: 38800 ng·h/mL
- Cmax [27]: 4840 ng/mL
- Tmax [28]: 3 h
- AUC [29]: 36500 ng·h/mL
- Cmax [30]: 4550 ng/mL
- half-life [31]: 9.3 h
- Tmax [32]: 3.3 h
- AUC [33]: 55100 ng·h/mL
- Cmax [34]: 6140 ng/mL
